Test results: ChEMBL document CHEMBL4825753 (J Med Chem, 2021)

Tests used:
[1] = target: T1, Tyrosine-protein kinase receptor UFO (Homo sapiens, UniProt P30530); assay: Inhibition of AXL (unknown origin) by LC-MS analysis
T1 sequence (P30530 whole entry): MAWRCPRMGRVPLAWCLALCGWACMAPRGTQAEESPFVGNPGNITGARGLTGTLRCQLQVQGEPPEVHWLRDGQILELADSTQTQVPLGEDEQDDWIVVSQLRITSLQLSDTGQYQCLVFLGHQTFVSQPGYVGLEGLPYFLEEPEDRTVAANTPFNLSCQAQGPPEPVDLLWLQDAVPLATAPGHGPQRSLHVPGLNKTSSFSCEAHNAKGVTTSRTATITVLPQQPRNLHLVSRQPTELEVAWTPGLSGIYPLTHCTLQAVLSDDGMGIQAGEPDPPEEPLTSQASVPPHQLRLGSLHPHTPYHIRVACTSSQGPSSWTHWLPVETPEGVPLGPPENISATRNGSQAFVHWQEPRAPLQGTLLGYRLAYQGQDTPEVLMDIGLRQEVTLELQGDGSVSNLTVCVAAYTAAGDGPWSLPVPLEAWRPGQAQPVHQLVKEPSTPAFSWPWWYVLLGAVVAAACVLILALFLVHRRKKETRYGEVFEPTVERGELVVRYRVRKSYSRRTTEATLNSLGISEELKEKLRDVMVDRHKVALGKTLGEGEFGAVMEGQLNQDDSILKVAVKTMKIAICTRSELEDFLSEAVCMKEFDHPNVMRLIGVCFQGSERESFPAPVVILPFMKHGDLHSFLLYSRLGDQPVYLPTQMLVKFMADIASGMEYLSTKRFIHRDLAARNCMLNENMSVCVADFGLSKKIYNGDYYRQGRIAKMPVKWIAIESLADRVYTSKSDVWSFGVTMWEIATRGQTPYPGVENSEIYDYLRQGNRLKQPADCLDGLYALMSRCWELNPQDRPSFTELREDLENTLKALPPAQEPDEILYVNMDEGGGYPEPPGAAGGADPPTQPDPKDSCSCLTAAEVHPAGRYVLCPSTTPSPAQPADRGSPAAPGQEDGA

[2] = target: T2, Receptor-type tyrosine-protein kinase FLT3 (Homo sapiens, UniProt P36888); assay: Inhibition of FLT3 (unknown origin) by LC-MS analysis
T2 sequence (P36888 whole entry): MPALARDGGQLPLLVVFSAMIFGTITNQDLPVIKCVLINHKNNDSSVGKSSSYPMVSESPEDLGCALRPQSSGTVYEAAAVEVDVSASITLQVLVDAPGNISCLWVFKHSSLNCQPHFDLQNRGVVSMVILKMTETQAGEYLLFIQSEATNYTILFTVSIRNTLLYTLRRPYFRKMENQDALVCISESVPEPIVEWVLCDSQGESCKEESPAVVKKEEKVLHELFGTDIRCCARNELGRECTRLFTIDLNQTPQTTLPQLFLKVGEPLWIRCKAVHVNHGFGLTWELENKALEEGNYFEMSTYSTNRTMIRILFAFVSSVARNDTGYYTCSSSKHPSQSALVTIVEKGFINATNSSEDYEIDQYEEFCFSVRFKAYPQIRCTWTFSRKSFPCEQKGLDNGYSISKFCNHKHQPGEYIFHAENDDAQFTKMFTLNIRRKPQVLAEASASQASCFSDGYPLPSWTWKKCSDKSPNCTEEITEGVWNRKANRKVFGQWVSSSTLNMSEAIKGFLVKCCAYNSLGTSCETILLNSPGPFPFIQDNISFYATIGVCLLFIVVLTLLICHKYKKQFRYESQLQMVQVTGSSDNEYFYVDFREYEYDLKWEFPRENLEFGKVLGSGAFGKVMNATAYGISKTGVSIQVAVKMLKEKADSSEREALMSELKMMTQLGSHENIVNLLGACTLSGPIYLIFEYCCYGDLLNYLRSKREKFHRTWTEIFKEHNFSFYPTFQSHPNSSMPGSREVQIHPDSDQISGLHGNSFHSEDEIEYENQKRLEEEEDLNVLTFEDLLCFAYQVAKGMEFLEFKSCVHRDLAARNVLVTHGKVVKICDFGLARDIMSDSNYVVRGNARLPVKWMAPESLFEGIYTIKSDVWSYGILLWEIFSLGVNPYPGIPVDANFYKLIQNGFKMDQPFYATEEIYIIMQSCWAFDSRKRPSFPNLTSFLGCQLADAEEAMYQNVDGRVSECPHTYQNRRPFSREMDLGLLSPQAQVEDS

[3] = target: T1, Tyrosine-protein kinase receptor UFO; assay: Inhibition of FLAG-tagged AXL (unknown origin) transfected in Cos-7 cells assessed as phosphorylation level incubated for 1 hr by ELISA; type: cell-based
[4] = target: T2, Receptor-type tyrosine-protein kinase FLT3; assay: Inhibition of FLAG-tagged FLT3 (unknown origin) transfected in Cos-7 cells assessed as phosphorylation level incubated for 1 hr by ELISA; type: cell-based
[5] = Lipophilicity, log D of the compound at pH 7.4; type: physicochemical; details: buffer
[6] = target: T3, Tyrosine-protein kinase receptor TYRO3 (Homo sapiens, UniProt Q06418); assay: Inhibition of FLAG-tagged Tyro3 (unknown origin) transfected in Cos-7 cells assessed as phosphorylation level incubated for 1 hr by ELISA; type: cell-based
T3 sequence (Q06418 whole entry): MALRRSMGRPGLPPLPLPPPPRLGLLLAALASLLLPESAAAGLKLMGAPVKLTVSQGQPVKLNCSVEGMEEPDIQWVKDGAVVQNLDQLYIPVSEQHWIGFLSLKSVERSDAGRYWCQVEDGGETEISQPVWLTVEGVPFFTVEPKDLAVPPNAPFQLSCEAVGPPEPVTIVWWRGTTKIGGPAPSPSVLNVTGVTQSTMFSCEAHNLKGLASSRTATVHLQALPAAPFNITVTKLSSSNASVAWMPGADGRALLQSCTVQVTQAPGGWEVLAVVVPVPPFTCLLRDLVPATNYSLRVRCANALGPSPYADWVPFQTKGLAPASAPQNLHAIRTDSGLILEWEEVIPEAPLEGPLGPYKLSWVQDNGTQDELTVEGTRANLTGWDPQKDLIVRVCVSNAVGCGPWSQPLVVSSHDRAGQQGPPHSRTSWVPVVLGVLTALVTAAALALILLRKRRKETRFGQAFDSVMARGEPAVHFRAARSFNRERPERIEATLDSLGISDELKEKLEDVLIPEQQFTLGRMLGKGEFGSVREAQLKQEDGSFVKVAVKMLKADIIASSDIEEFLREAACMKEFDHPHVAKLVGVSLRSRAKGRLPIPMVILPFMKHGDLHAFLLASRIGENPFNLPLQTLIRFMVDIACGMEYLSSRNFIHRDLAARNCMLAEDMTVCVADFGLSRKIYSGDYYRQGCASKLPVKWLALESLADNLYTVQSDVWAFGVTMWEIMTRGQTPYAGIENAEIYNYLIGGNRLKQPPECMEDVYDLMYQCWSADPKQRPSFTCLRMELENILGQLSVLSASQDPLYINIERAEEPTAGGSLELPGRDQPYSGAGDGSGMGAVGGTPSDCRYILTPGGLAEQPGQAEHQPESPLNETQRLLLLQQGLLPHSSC

[7] = Induction efferocytosis in human PBMC assessed as CD14-positive monocytes
[8] = AUC in C57BL/6J mouse at 100 mg/kg, po measured up to 24 hrs; type: ADME, organism-based; parameters: route oral, dose 100 mg/kg, time <=24; details: in vivo

IC50 [1]	IC50 [2]	IC50 [3]	IC50 [4]	logD [5]	IC50 [6]	pIC50 [7]	AUC at 24 h [8]	SMILES
1 µM	20 µM	6.31 µM	> 31.6 µM	2.8	> 31.6 µM	6		Cc1cc(-c2c(C)nn(C)c2C)cnc1-c1nnc(N(C)Cc2ccc3nccn3c2)o1
0.0794 µM	15.8 µM	0.398 µM	20 µM	3.7	> 31.6 µM	6.8	295 µM·h	Cc1cc(-c2c(C)nn(C)c2C)ccc1-c1nnc(N(C)Cc2ccc3nccn3c2)o1
		0.1 µM	> 31.6 µM	2.9	> 31.6 µM	7.6	71 µM·h	Cc1cc(-c2c(C)nn(C)c2C)cnc1-c1nnc(N(C)Cc2ccc3ncc(-c4ccc(CN(C)C)cc4)n3c2)o1
